Literature values, collected in article PMC6044708 (ACS Omega, 2016).

Assays:
Gram-positive bacteria = details: comparison in words
S. aureus = details: Gram (+), ATCC strain; reference compound
E. coli = details: Gram (−), ATCC strain; reference compound
P. aeruginosa = details: Gram (−), ATCC strain; reference compound
B. subtilis = details: Gram (+), ATCC strain; reference compound

Substance | activity compared with Arg10–teixobactin (2) (Gram-positive bacteria) | MIC S. aureus (S. aureus) | MIC E. coli (E. coli) | activity compared with the parent compound teixobactin (1) (Gram-positive bacteria) | MIC P. aeruginosa (P. aeruginosa) | MIC B. subtilis (B. subtilis)
Lys10–teixobactin | more active |  |  |  |  | 
Arg10–teixobactin [Arg10–teixobactin (2)] |  | 2 µg/mL | 64 µg/mL | 1 order of magnitude less active | no activity | 0.5 µg/mL
